Tests used:
Assay in all cases: relative viability (nuclei count vs DMSO), 5 days (fraction); higher = more cells survive
Irinotecan + Dasatinib = compound: CCc1c2c(nc3ccc(OC(=O)N4CCC(N5CCCCC5)CC4)cc13)-c1cc3c(c(=O)n1C2)COC(=O)[C@]3(O)CC [Irinotecan] + Cc1nc(Nc2ncc(C(=O)Nc3c(C)cccc3Cl)s2)cc(N2CCN(CCO)CC2)n1 [Dasatinib] (partner 0.075 µM)
Method in brief: (§1)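 Values are medians from duplicate plates. Each reflects relative viability, defined as the nuclei count of treated wells over that of vehicle wells. Lung cancer cell lines in 1536-well plates were pin-tool dosed one day after seeding with one drug alone or with a fixed anchor-drug dose plus five library-drug doses (not always all listed) in √10 steps, then fixed, stained and imaged at 4× after 5 days.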

MK-8033 + Alpelisib = compound: Cn1cc(-c2cnc3ccc4ccc(CS(=O)(=O)NCc5ccccn5)cc4c(=O)c3c2)cn1 [MK-8033] + Cc1nc(NC(=O)N2CCC[C@H]2C(N)=O)sc1-c1ccnc(C(C)(C)C(F)(F)F)c1 [Alpelisib] (partner 2 µM)
Method in brief: as §1

MK-8033 + Decitabine = compound: Cn1cc(-c2cnc3ccc4ccc(CS(=O)(=O)NCc5ccccn5)cc4c(=O)c3c2)cn1 [MK-8033] + Nc1ncn([C@H]2C[C@H](O)[C@@H](CO)O2)c(=O)n1 [Decitabine] (partner 2 µM)
Method in brief: as §1

MK-8033 + Vorinostat = compound: Cn1cc(-c2cnc3ccc4ccc(CS(=O)(=O)NCc5ccccn5)cc4c(=O)c3c2)cn1 [MK-8033] + O=C(CCCCCCC(=O)Nc1ccccc1)NO [Vorinostat] (partner 1 µM)
Method in brief: as §1

UMC-11 was tested, and the relative viability (Irinotecan + Dasatinib; first compound 0.6325 µM) was 0.422, the relative viability (Irinotecan + Dasatinib; first compound 2 µM) was 0.372 and the relative viability (Irinotecan + Dasatinib; first compound 6.325 µM) was 0.232. For the same cell line, the relative viability (Irinotecan + Dasatinib; first compound 20 µM) was 0.104, the relative viability (MK-8033 + Alpelisib; first compound 0.02 µM) was 0.988 and the relative viability (MK-8033 + Alpelisib; first compound 0.06325 µM) was 0.979. It also gave a relative viability (MK-8033 + Alpelisib; first compound 0.2 µM) of 0.958, a relative viability (MK-8033 + Alpelisib; first compound 0.6325 µM) of 0.961 and a relative viability (MK-8033 + Alpelisib; first compound 2 µM) of 0.986. For the same cell line, the relative viability (MK-8033 + Decitabine; first compound 0.02 µM) was 0.593, the relative viability (MK-8033 + Decitabine; first compound 0.06325 µM) was 0.424 and the relative viability (MK-8033 + Decitabine; first compound 0.2 µM) was 0.59. For the same cell line, the relative viability (MK-8033 + Decitabine; first compound 0.6325 µM) was 0.714, the relative viability (MK-8033 + Decitabine; first compound 2 µM) was 0.612 and the relative viability (MK-8033 + Vorinostat; first compound 0.02 µM) was 0.32. It also gave a relative viability (MK-8033 + Vorinostat; first compound 0.06325 µM) of 0.345, a relative viability (MK-8033 + Vorinostat; first compound 0.2 µM) of 0.46 and a relative viability (MK-8033 + Vorinostat; first compound 0.6325 µM) of 0.419. It also gave a relative viability (MK-8033 + Vorinostat; first compound 2 µM) of 0.409.

— the supplement of paper PMC10307832
